Each compound was assayed on HT-1080 (fibrosarcoma) cells (assay: Primary screening by ferroptosis assay (Erastin-induced, cell viability, CellTiter-Glo)). Settings: HT-1080 cells, 30 hours, % remaining activity, read-out: EC50, Inhibition for Ferroptosis in HT-1080 Cell.
Type: cell-based
Experimental: Cell Lines and Media: HT-1080 (fibrosarcoma) cells were obtained from American Type Culture Collection. Cells were grown in EMEM media, 10% Heat-Inactivated FBS, and penicillin-streptomycin mix (Invitrogen). Cells were maintained at 37° C. and 5% CO2 in a tissue culture incubator.
Cell Viability Assay: Seed 10,000 cell/well of HT-1080 cells with 195 μL growth media in black and clear bottom 96-well plates (Cat #Corning 3904) and allow cells to adhere overnight. The next day, dilute test compound by 2-fold dilution into 12 points with medium containing 400 μM Erastin. Transfer 5 μL of compounds solution into growth medium in triplicated wells. 30 hours later, add Cell Titer-Glo® Luminescent cell viability assay reagent (Cat #, Promega G8081) to measure HT-1080 cell viability according to the manufacture protocol. Briefly, aspirate 100 μL medium, and add 50 μL CellTiter-Glo® Luminescent reagent to each well and incubated for 30 minutes at room temperature to stabilize the Luminescent signal. Seal the plates and centrifuged for 1 minute at 1,000 rpm to remove bubbles. Shake the plates for 1 minute on an orbital shaker. Read the plate to detect Luminescent signal with EnSpire Multimode Plate Reader (PerkinElmer). The remaining activity % is used to evaluate Erastin induced ferroptosis in HT-1080 cells and expressed as the following formula: % Remaining Activity−100×[(Sample−Backgroundavg)/(Vehicle−Background avg)]
Sample: Readout from the test compound
Vehicle: Readout from the vehicle sample
Background: Readout from the Erastin only treatment
Dose response curve is graphed by using the non-linear regression analysis (formula equation 201) in XLFit (Excel add-in software) for the average % remaining activity from triplicates, and the EC50 values is then calculated. In this anti-ferroptosis assay, ferrostatin-1, and XJB-5-131 are included as reference. The acceptance criteria were set based on historical result, mean±2.58*SD in logarithmic scale, meanwhile Z′>0.5.

| SMILES | EC50 |
| --- | --- |
| COC(=O)[C@H](CCCNC(=O)OC1CC(C)(C)N(O)C(C)(C)C1)NC(=O)[C@@H](NC(=O)[C@@H]1CCCN1C(=O)[C@H](/C=C/[C@H](CC(C)C)NC(=O)OC(C)(C)C)Cc1ccccc1)C(C)C [XXXIX, (S)-methyl 2-((S)-2-((S)-1-((2S,5S,E)-2-benzyl-5-((tert-butoxycarbonyl)amino)-7-methyloct-3-enoyl)pyrrolidine-2-carboxamido)-3-methylbutanamido)—5-((((1-hydroxy-2,2,6,6-tetramethylpiperidin-4-yl)oxy)carbonyl)amino)pentanoate] | 142 nM |
| CC(C)C[C@@H](/C=C/[C@H](Cc1ccccc1)C(=O)N1CCC[C@H]1C(=O)N[C@@H](CCCNC(=O)OC(C)(C)C)C(=O)NC1CC(C)(C)N([O])C(C)(C)C1)NC(=O)OC(C)(C)C [Example XX, tert-Butyl N-(4-{[(2S)-1-[(2R,3E,5S)-2-benzyl-5-{[(tert-butoxy)carbonyl]amino}-7-methyloct-3-enoyl]pyrrolidin-2-yl]formamido}-4-[(1-oxyl-2,2,6,6-tetramethylpiperidin-4-yl)carbamoyl]butyl)carbamate] | 532 nM |
| CC(C)C[C@@H](/C=C/[C@H](Cc1ccccc1)C(=O)N1CCC[C@H]1C(=O)N[C@@H](CCCNC(=O)OC1CC(C)(C)N(O)C(C)(C)C1)C(=O)OC(C)C)NC(=O)OC(C)(C)C [Example XXX, Propan-2-yl (2S)—2-{[(2S)-1-[(2S,3E,5S)-2-benzyl-5-{[(tert-butoxy)carbonyl]amino}-7-methyloct-3-enoyl]pyrrolidin-2-yl]formamido}-5-({[(1-hydroxy-2,2,6,6-tetramethylpiperidin-4-yl)oxy]carbonyl}amino)pentanoate] | 46 nM |
| CC(C)C[C@@H](/C=C/[C@H](Cc1ccccc1)C(=O)N1CCC[C@H]1C(=O)N[C@@H](CCCNC(=O)OC1CC(C)(C)N(O)C(C)(C)C1)C(=O)NC(C)C)NC(=O)OC(C)(C)C [Example XXXXV] | 144 nM |
| CC(C)C[C@@H](/C=C/[C@H](Cc1ccccc1)C(=O)N1CCC[C@H]1C(=O)N[C@H](C(=O)N[C@@H](CCCNC(=O)OCc1ccccc1)C(=O)NC1CC(C)(C)N([O])C(C)(C)C1)C(C)C)NC(=O)OC1CC(C)(C)N([O])C(C)(C)C1 [Example VIII, 1-Oxyl-2,2,6,6-tetramethylpiperidin-4-yl N-[(4S,5E,7S)-7-benzyl-8-[(2S)—2-{[(1S)—1-{[(1S)—4-{[(benzyloxy)carbonyl]amino}-1-[(1-oxyl-2,2,6,6-tetramethylpiperidin-4-yl)carbamoyl]butyl]carbamoyl}-2-methylpropyl]carbamoyl}pyrrolidin-1-yl]-2-methyl-8-oxooct-5-en-4-yl]carbamate] | 266 nM |

Same assay, conditions: Homo sapiens, HT-1080, 30 h, HT-1080 cells, % remaining activity, read-out: EC50, Inhibition for Ferroptosis in HT-1080 Cell

| SMILES | EC50 |
| --- | --- |
| CC(C)C[C@@H](/C=C/[C@H](Cc1ccccc1)C(=O)N1CCCC1C(=O)N[C@@H](CCCCNC(=O)OC1CC(C)(C)N(O)C(C)(C)C1)C(=O)OC1CCCCC1)NC(=O)OC(C)(C)C (stereo in doubt) [Example XXXXVI, (S)—Cyclohexyl 2-((R)-1-((2S,5S,E)-2-benzyl-5-((tert-butoxycarbonyl)amino)-7-methyloct-3-enoyl)pyrrolidine-2-carboxamido)-6-((((1-hydroxy-2,2,6,6-tetramethylpiperidin-4-yl)oxy)carbonyl)amino)hexanoate] | 66.3 nM |
| CC(C)C[C@@H](/C=C/[C@H](Cc1ccccc1)C(=O)N1CCC[C@H]1C(=O)N[C@@H](Cc1ccc(O)cc1)C(=O)NC1CC(C)(C)N(O)C(C)(C)C1)NC(=O)OC(C)(C)C [Example XVI, tert-Butyl N-[(4S,5E,7S)-7-benzyl-8-[(2S)—2-{[(1S)-1-[(1-hydroxy-2,2,6,6-tetramethylpiperidin-4-yl)carbamoyl]-2-(4-hydroxyphenyl)ethyl]carbamoyl}pyrrolidin-1-yl]-2-methyl-8-oxooct-5-en-4-yl]carbamate] | 536 nM |
| COC(=O)[C@H](CCCNC(=O)OC1CC(C)(C)N(O)C(C)(C)C1)NC(=O)[C@@H]1CCCN1C(=O)[C@H](/C=C/[C@H](CC(C)C)NC(=O)OC(C)(C)C)Cc1ccccc1 [Example XVIII] | 86 nM |
| CC(C)C[C@@H](/C=C/C(Cc1ccccc1)C(=O)N1CCC[C@H]1C(=O)N[C@H](C(=O)N[C@@H](CCCNC(=O)OCc1ccccc1)C(=O)NC1CC(C)(C)N(O)C(C)(C)C1)C1CC1)NC(=O)OC(C)(C)C (stereo in doubt) [Example XII, Benzyl N-[(4S)-4-[(2S)—2-{[(2S)-1-[(2R,3E,5S)-2-benzyl-5-{[(tert-butoxy)carbonyl]amino}-7-methyloct-3-enoyl]pyrrolidin-2-yl]formamido}-2-cyclopropylacetamido]-4-[(1-hydroxy-2,2,6,6-tetramethylpiperidin-4-yl)carbamoyl]butyl]carbamate] | 481 nM |
| CC(C)C[C@@H](/C=C/[C@H](Cc1ccccc1)C(=O)N1CCC[C@H]1C(=O)N[C@@H](CCCCNC(=O)OC1CC(C)(C)N(O)C(C)(C)C1)C(=O)NC(C)C)NC(=O)OC(C)(C)C [Example XXXVII, tert-Butyl N-[(4S,5E,7S)-7-benzyl-8-[(2S)—2-{[(1S)-5-({[(1-oxyl-2,2,6,6-tetramethylpiperidin-4-yl)oxy]carbonyl}amino)-1-[(propan-2-yl)carbamoyl]pentyl]carbamoyl}pyrrolidin-1-yl]-2-methyl-8-oxooct-5-en-4-yl]carbamate] | 201 nM |
| CC(C)C[C@@H](/C=C/[C@H](Cc1ccccc1)C(=O)N1CCC[C@@H]1C(=O)N[C@@H](CCCNC(=O)OCc1ccccc1)C(=O)NC1CC(C)(C)N(O)C(C)(C)C1)NC(=O)OC(C)(C)C [Example XVII, Benzyl N-[(4S)—4-{[(2R)-1-[(2S,3E,5S)-2-benzyl-5-{[(tert-butoxy)carbonyl]amino}-7-methyloct-3-enoyl]pyrrolidin-2-yl]formamido}-4-[(1-hydroxy-2,2,6,6-tetramethylpiperidin-4-yl)carbamoyl]butyl]carbamate] | 284 nM |
| CC(C)C[C@@H](/C=C/[C@H](Cc1ccccc1)C(=O)N1CCC[C@H]1C(=O)N[C@@H](CCCCNC(=O)C1CC(C)(C)N(O)C1(C)C)C(=O)OC(C)C)NC(=O)OC(C)(C)C (stereo partly drawn) [Example XXXII, Propan-2-yl (2S)—2-{[(2S)-1-[(2S,3E,5S)-2-benzyl-5-{[(tert-butoxy)carbonyl]amino}-7-methyloct-3-enoyl]pyrrolidin-2-yl]formamido}-6-[(1-oxyl-2,2,5,5-tetramethylpyrrolidin-3-yl)formamido]-hexanoate] | 573 nM |
| CC(C)C[C@@H](/C=C/[C@H](Cc1ccccc1)C(=O)N1CCC[C@H]1C(=O)N[C@H](CCCCNC(=O)OC1CC(C)(C)N(O)C(C)(C)C1)C(=O)O)NC(=O)OC(C)(C)C [XXXIV, (2R)—2-{[(2S)-1-[(2S,3E,5S)-2-benzyl-5-{[(tert-butoxy)carbonyl]amino}-7-methyloct-3-enoyl]pyrrolidin-2-yl]formamido}-6-({[(1-oxyl-2,2,6,6-tetramethylpiperidin-4-yl)oxy]carbonyl}amino)hexanoic acid] | > 4000 nM |

Same assay, conditions: Homo sapiens, HT-1080 cells, 30 hours, % remaining activity, read-out: EC50, Inhibition for Ferroptosis in HT-1080 Cell

| SMILES | EC50 |
| --- | --- |
| CC(C)C[C@@H](/C=C/[C@H](Cc1ccccc1)C(=O)N1CCC[C@@H]1C(=O)N[C@@H](CCCNC(=O)OC(C)(C)C)C(=O)NC1CC(C)(C)N(O)C(C)(C)C1)NC(=O)OC(C)(C)C [Example XXI, tert-Butyl N-[(4S,5E,7S)-7-benzyl-8-[(2R)—2-{[(1S)—4-{[(tert-butoxy)carbonyl]amino}-1-[(1-hydroxy-2,2,6,6-tetramethylpiperidin-4-yl)carbamoyl]butyl]carbamoyl}pyrrolidin-1-yl]-2-methyl-8-oxooct-5-en-4-yl]carbamate] | 257 nM |

Reference: patent US10889572B2, “Reactive oxygen species scavengers and use for treating diseases” (XW LABORATORIES INC., priority 2017, dated 2021)
